Tested on: Plasmodium berghei
Assay: Luciferase/luciferin-expressing antifolate-resistant parasites were used to infect a culture of HepG2 cells that were pre-incubated with compounds. Infected hepatocytes emit light due to the luciferase reaction. Assay results are presented as the percent inhibition of light emission compared to control. […]
Type: functional
Details: sporozoite; for IC90: read-out: LUCIFERASE INFECTION ASSAY - IC90
[1] = read-out: LUCIFERASE INFECTION ASSAY - IC50

CN1/C(=C\C(=O)COC(=O)/C=C/c2cn(-c3ccccc3)nc2-c2ccc(F)cc2)C(C)(C)c2ccccc21
IC50 (FFLUC_HILL_SLOPE 1.67, FFLUC_R_SQUARED 0.511, PBLUC_HILL_SLOPE 9.36, PBLUC_R_SQUARED 0.0694, read-out: LUCIFERASE INFECTION ASSAY - IC50): 9.4 µM | IC90: > 10 µM

S=C(NCCc1csc2ccccc12)Nc1ccc(Cl)cc1
IC50 (PBLUC_HILL_SLOPE 1.56, PBLUC_R_SQUARED 0.124, read-out: LUCIFERASE INFECTION ASSAY - IC50): > 9.51 µM | IC90: > 9.51 µM

CN(C)C(=O)c1cccc(-c2cn3c(-c4ccc5c(ccn5C)c4)cnc3cn2)c1
IC50 (HEPG2TOX_HILL_SLOPE 2.46, HEPG2TOX_R_SQUARED 0.94, PBLUC_HILL_SLOPE 1.63, PBLUC_R_SQUARED 0.793, read-out: LUCIFERASE INFECTION ASSAY - IC50): 2.64 µM | IC90: > 8.34 µM

O=[N+]([O-])c1ccc(Sc2ccc(Cl)cc2)c(-c2cc[nH]n2)c1
IC50 (FFLUC_HILL_SLOPE 2.47, FFLUC_R_SQUARED 0.0888, HEPG2TOX_HILL_SLOPE 0.21, HEPG2TOX_R_SQUARED 0.178, PBLUC_HILL_SLOPE 0.977, PBLUC_R_SQUARED 0.273, read-out: LUCIFERASE INFECTION ASSAY - IC50): > 9.95 µM | IC90: > 9.95 µM

CNc1snc(C)c1C(=O)OCc1cc(Cl)ccc1OC
IC50 (FFLUC_HILL_SLOPE 8.97, FFLUC_R_SQUARED 0.0554, PBLUC_HILL_SLOPE 11, PBLUC_R_SQUARED 0.441, read-out: LUCIFERASE INFECTION ASSAY - IC50): 3.41 µM | IC90: 4.16 µM

O=C(NC1CC1)c1ccc(-c2cnc3cnc(-c4ccccc4Cl)cn23)cc1
IC50 (HEPG2TOX_HILL_SLOPE 2.06, HEPG2TOX_R_SQUARED 0.921, PBLUC_HILL_SLOPE 2.15, PBLUC_R_SQUARED 0.563, read-out: LUCIFERASE INFECTION ASSAY - IC50): 4.01 µM | IC90: > 8.49 µM

Cc1c(C(=O)Nc2ccccc2C(=O)NC2CC2)cnn1-c1cccc(C(F)(F)F)c1
IC50 (HEPG2TOX_HILL_SLOPE 8.3, HEPG2TOX_R_SQUARED 0.547, PBLUC_HILL_SLOPE 12.1, PBLUC_R_SQUARED 0.521, read-out: LUCIFERASE INFECTION ASSAY - IC50): 0.342 µM | IC90: 0.41 µM

CC(C)(C)c1cc(C(=O)Nc2cccc(Cl)c2)n(Cc2ccc(Cl)cc2Cl)n1
IC50 (FFLUC_HILL_SLOPE 10.5, FFLUC_R_SQUARED 0.365, read-out: LUCIFERASE INFECTION ASSAY - IC50): > 7.56 µM | IC90: > 7.56 µM

Clc1ccccc1-c1nc2ccnc(NCCc3ccccc3)c2[nH]1
IC50 (HEPG2TOX_HILL_SLOPE 0.707, HEPG2TOX_R_SQUARED 0.751, PBLUC_HILL_SLOPE 2.17, PBLUC_R_SQUARED 0.665, read-out: LUCIFERASE INFECTION ASSAY - IC50): 2.9 µM | IC90: 7.97 µM

CS(=O)(=O)c1ccc(-c2cnc3ccc(Cc4ccc(F)cc4)nn23)cc1
IC50 [1]: 2.9 µM | IC90: 3.4 µM

CC1CC(C)CN(c2nc3c(c(=O)[nH]c(=O)n3C)n2Cc2ccccc2F)C1 (stereo unspecified)
IC50 (PBLUC_HILL_SLOPE 14.3, PBLUC_R_SQUARED 0.575, read-out: LUCIFERASE INFECTION ASSAY - IC50): 8.19 µM | IC90: > 8.56 µM

Cc1ccccc1-c1cn2c(-c3ccc4c(c3)OCO4)cnc2cn1
IC50 (HEPG2TOX_HILL_SLOPE 0.84, HEPG2TOX_R_SQUARED 0.902, PBLUC_HILL_SLOPE 1.93, PBLUC_R_SQUARED 0.734, read-out: LUCIFERASE INFECTION ASSAY - IC50): 0.263 µM | IC90: 0.821 µM

CCCCNC(=O)CN1CCN(C(=O)Cc2c(C)nc3ccccc3c2C)CC1
IC50 [1]: > 10 µM | IC90: > 10 µM

CC(=O)Nc1ccc(C(=S)NCCCN2CCCC2=O)cc1
IC50 [1]: > 10 µM | IC90: > 10 µM

O=C(Nc1nc2ccccc2[nH]1)c1ccccn1
IC50 (FFLUC_HILL_SLOPE 12.7, FFLUC_R_SQUARED 0.6, read-out: LUCIFERASE INFECTION ASSAY - IC50): > 10 µM | IC90: > 10 µM

Cn1nnnc1Sc1nc(-c2ccccc2)nc2ccccc12
IC50 (HEPG2TOX_HILL_SLOPE 4.8, HEPG2TOX_R_SQUARED 0.994, PBLUC_HILL_SLOPE 8.61, PBLUC_R_SQUARED 0.614, read-out: LUCIFERASE INFECTION ASSAY - IC50): 3.95 µM | IC90: 5.09 µM

Cc1cnc(NC(=O)c2ccc(N(C)C3CCCCC3)cc2)s1
IC50 (HEPG2TOX_HILL_SLOPE 7.67, HEPG2TOX_R_SQUARED 0.65, PBLUC_HILL_SLOPE 1.69, PBLUC_R_SQUARED 0.349, read-out: LUCIFERASE INFECTION ASSAY - IC50): 0.0892 µM | IC90: 0.327 µM

COc1cc2c(cc1OC)C(c1cccs1)N(C(=O)CC1CCCC1)CC2 (stereo unspecified)
IC50 (FFLUC_HILL_SLOPE 12.1, FFLUC_R_SQUARED 0.331, HEPG2TOX_HILL_SLOPE 1.22, HEPG2TOX_R_SQUARED 0.987, PBLUC_HILL_SLOPE 1.62, PBLUC_R_SQUARED 0.49, read-out: LUCIFERASE INFECTION ASSAY - IC50): 2.88 µM | IC90: > 10 µM

CC(C)CCNCC(O)CON=C1c2ccccc2-c2ccccc21 (stereo unspecified)
IC50 [1]: > 10 µM | IC90: > 10 µM

Cc1cc(Nc2ccc3c(=O)c(-c4c(F)cccc4Cl)c(C)oc3c2)no1
IC50 (HEPG2TOX_HILL_SLOPE 11.5, HEPG2TOX_R_SQUARED 0.0504, PBLUC_HILL_SLOPE 0.784, PBLUC_R_SQUARED 0.684, read-out: LUCIFERASE INFECTION ASSAY - IC50): 1.11 µM | IC90: > 10 µM

O=C(Nc1nc(-c2ccccn2)cs1)c1nn(-c2ccc(F)cc2)c2c1CCCC2
IC50 (PBLUC_HILL_SLOPE 4.43, PBLUC_R_SQUARED 0.595, read-out: LUCIFERASE INFECTION ASSAY - IC50): 5.45 µM | IC90: 8.94 µM

CCCCCCCCc1nnc(NC(=O)c2cnc(C)cn2)s1
IC50 (PBLUC_HILL_SLOPE 3.30, 10.9, PBLUC_R_SQUARED 0.837, 0.639, read-out: LUCIFERASE INFECTION ASSAY - IC50): 6.57 µM | IC90: 9.2 µM

CCOC(=O)c1[nH]c(CN2CCN(c3ccccc3)CC2)c(C(=O)OCC)c1C
IC50 (PBLUC_HILL_SLOPE 7.85, PBLUC_R_SQUARED 0.611, read-out: LUCIFERASE INFECTION ASSAY - IC50): 8.25 µM | IC90: > 10 µM

FC(F)(F)c1nnc2ccc(NC(c3ccccc3)c3cc4ccccc4o3)nn12 (stereo unspecified)
IC50 (FFLUC_HILL_SLOPE 3.11, FFLUC_R_SQUARED 0.599, PBLUC_HILL_SLOPE 15.6, PBLUC_R_SQUARED 0.326, read-out: LUCIFERASE INFECTION ASSAY - IC50): 3.65 µM | IC90: 4.2 µM

COc1ccc(-n2c(C)cc(C(=O)Cn3ncc(Cl)c(Cl)c3=O)c2C)cc1
IC50 (HEPG2TOX_HILL_SLOPE 0.989, HEPG2TOX_R_SQUARED 0.688, read-out: LUCIFERASE INFECTION ASSAY - IC50): > 10 µM | IC90: > 10 µM

O=C(NCc1ccccc1)/C(=C/c1ccc(OCc2ccccc2)cc1)c1nc2ccccc2[nH]1
IC50 (FFLUC_HILL_SLOPE 9.07, FFLUC_R_SQUARED 0.413, PBLUC_HILL_SLOPE 2.18, PBLUC_R_SQUARED 0.79, read-out: LUCIFERASE INFECTION ASSAY - IC50): 0.462 µM | IC90: 1.26 µM

O=C(Oc1ccc(Cl)cc1Sc1cc(Cl)ccc1OC(=O)c1cccs1)c1cccs1
IC50 (FFLUC_HILL_SLOPE 35.2, FFLUC_R_SQUARED 0.259, read-out: LUCIFERASE INFECTION ASSAY - IC50): > 6.5 µM | IC90: > 6.5 µM

CN(C)CCCN1C(=O)N(CCc2ccccc2)C2(CCN(Cc3cn(C)c4ccccc34)CC2)C1=O
IC50 (HEPG2TOX_HILL_SLOPE 17.2, HEPG2TOX_R_SQUARED 0.602, PBLUC_HILL_SLOPE 5.41, PBLUC_R_SQUARED 0.643, read-out: LUCIFERASE INFECTION ASSAY - IC50): 4.13 µM | IC90: 6.2 µM

COc1ccc(-c2nccc3n[nH]c(-c4cccc(C(F)(F)F)c4)c23)cc1OC
IC50 (PBLUC_HILL_SLOPE 15.9, PBLUC_R_SQUARED 0.0621, read-out: LUCIFERASE INFECTION ASSAY - IC50): 9.75 µM | IC90: > 10 µM

COc1ccc(Nc2nc(S(=O)(=O)c3ccc(C)cc3)c(Cl)s2)cc1
IC50 (HEPG2TOX_HILL_SLOPE 11.4, HEPG2TOX_R_SQUARED 0.576, read-out: LUCIFERASE INFECTION ASSAY - IC50): > 10 µM | IC90: > 10 µM

CCCS(=O)(=O)N1CCC(NC(=O)c2scnc2C)CC1
IC50 [1]: > 10 µM | IC90: > 10 µM

CS(=O)(=O)Nc1cccc(-c2cnc(N)c(-c3cccc(C(F)(F)F)c3)c2)c1
IC50 (HEPG2TOX_HILL_SLOPE 0.275, HEPG2TOX_R_SQUARED 0.333, PBLUC_HILL_SLOPE 1.7, PBLUC_R_SQUARED 0.794, read-out: LUCIFERASE INFECTION ASSAY - IC50): 0.0199 µM | IC90: 0.0724 µM

Cc1cc(C(=O)CSc2nc3cc([N+](=O)[O-])ccc3n2-c2ccccc2)c(C)n1Cc1ccco1
IC50 [1]: > 10 µM | IC90: > 10 µM

O=C(NCc1ccc(-c2cccs2)s1)c1ccc([N+](=O)[O-])o1
IC50 (HEPG2TOX_HILL_SLOPE 1.96, HEPG2TOX_R_SQUARED 0.945, PBLUC_HILL_SLOPE 1.03, PBLUC_R_SQUARED 0.326, read-out: LUCIFERASE INFECTION ASSAY - IC50): > 9.87 µM | IC90: > 9.87 µM

C/C(=N\Nc1nc2ccccc2[nH]1)c1ccc(N2CCOCC2)cc1
IC50 [1]: > 10 µM | IC90: > 10 µM

COc1cccc(-c2cc3c(Nc4ccccc4)nccc3[nH]2)c1
IC50 (PBLUC_HILL_SLOPE 41.1, PBLUC_R_SQUARED 0.519, read-out: LUCIFERASE INFECTION ASSAY - IC50): 3.33 µM | IC90: 3.51 µM

Cc1nnc(NC(=O)c2ccc3c(c2)SC2=NS(=O)(=O)CCN23)s1
IC50 [1]: > 10 µM | IC90: > 10 µM

CC(=O)NCc1ccc(-c2csc(NC(=O)c3cc4cnn(C(C)C)c4nc3C)n2)s1
IC50 (HEPG2TOX_HILL_SLOPE 7.15, HEPG2TOX_R_SQUARED 0.462, PBLUC_HILL_SLOPE 31.4, PBLUC_R_SQUARED 0.13, read-out: LUCIFERASE INFECTION ASSAY - IC50): 9.38 µM | IC90: > 10 µM
